Reference: patent US8507656B2, “Stabilized angiopoietin-2 antibodies and uses thereof” (MedImmune Limited, priority 2008, dated 2013)
Where two headings read alike, the source gives them in different places.

What was measured:
Format in all cases: in vivo
H460 xenograft tumors [1] = details: 3.19.3 10 mg/kg 2×wk i.p., Oxaliplatin 5 mg/kg/week i.p., combination of both
Description: The anti-tumor activity of 3.19.3 was evaluated in combination with Oxaliplatin in the H460 xenograft model of lung cancer. H460 cells were cultured in flasks as routine until the cells reached sub-confluence. Cell suspensions containing approximately 3×10E6 cells were injected subcutaneously into the flank of female Swiss nude mice. When the tumor volume reached 200 mm^3, the mice were randomized in treatment groups of 8-10 mice and the treatments were initiated. 3.19.3 (10 mg/kg) in saline was injected intraperitoneally, twice per week for 2 weeks. Oxaliplatin (5 mg/kg) was administered by intraperitoneal administration following a weekly schedule. The dimensions of each tumor and body weights were measured at least twice per week. The volume of the tumor was calculated as: Volume=Length×(Width)×0.5 (cm^3).

MCF7 xenograft tumors = assay: MCF7 breast cancer xenograft model; details: 3.19.3 10 mg/kg 2×wk i.p., AZD6495 30 mg/kg bid p.o. 18 d, combination of both
Description: The anti-tumor activity of the anti-Angiopoietin-2 monoclonal antibody 3.19.3 in combination with the small molecule CSF1R tyrosine kinase inhibitor AZD6495 (4-[(2,4-difluorophenyl)amino]-7-ethoxy-6-(4-methylpiperazin-1-yl)quinoline-3-carboxamide) was evaluated in a xenograft model of human breast carcinoma using the MCF7 cell line (FIG. 4a).
Materials and Methods: Breast carcinoma MCF7 cells were cultured in flasks as routine until the cells reach sub-confluence. Immunodeficient 7-10 week old male NCr-nude mice were subcutaneously implanted with 8×10^6 MCF7 cells suspended 1:1 in Matrigel in the right flank. […]
The mice were then randomized into cohorts containing 15 mice once the tumors reached approximately 100 mm^3. […] The body weights of each animal, and the dimensions of each tumor were measured twice per week. The volume of the tumor was calculated as: Volume=Length×(Width)^2×0.5 cm^3, or by bilateral Vernier caliper measurement and, taking length to be the longest diameter across the tumor and width the corresponding perpendicular, calculated using the formula (π/6)×(length×width)×√(length×width). Growth inhibition from the start of treatment was assessed by comparison of the differences in tumor volume between control and treated groups.

H460 xenograft tumors [2] = details: 3.19.3 10 mg/kg 2×wk i.p., AZD4877 10 mg/kg q4dx2 i.p., combination of both
Description: The anti-tumor activity of 3.19.3 was evaluated in combination with AZD4877 in the
H460 xenograft model of lung cancer. H460 cells were cultured in flasks as routine until the cells reached sub-confluence. Cell suspensions containing approximately 3×10E6 cells were injected subcutaneously into the right flank of male NCr nu/nu mice. When the tumor volume reached 200 mm^3, the mice were randomized in treatment groups of 8-10 mice and the treatments were initiated. 3.19.3 (10 mg/kg) in saline was injected intraperitoneally, twice per week for 2 weeks. AZD4877 (10 mg/kg) was administered by intraperitoneal administration following a q4d schedule. The dimensions of each tumor and body weights were measured at least twice per week. The volume of the tumor was calculated as: Volume=Length×(Width)×0.5 (cm^3).

3.19.3: fully human anti-Ang-2 monoclonal antibody, wild type control; light chain SEQ ID No. 1, heavy chain SEQ ID No. 2 [Antibody 3.19.3]
% tumor growth inhibition (H460 xenograft tumors [1]): 67%
% tumor growth inhibition (MCF7 xenograft tumors): 62%
% tumor growth inhibition (H460 xenograft tumors [2]): 64%
